Molecular target: T1, TRPV4 (Canis lupus, UniProt A0A8I3PAV3)
T1 construct: endogenous channel in MDCK cells
Assay: whole-cell patch clamp, block of GSK1016790A-evoked currents in MDCK cells
Assay type: cell-based

T1 sequence (A0A8I3PAV3 1-828): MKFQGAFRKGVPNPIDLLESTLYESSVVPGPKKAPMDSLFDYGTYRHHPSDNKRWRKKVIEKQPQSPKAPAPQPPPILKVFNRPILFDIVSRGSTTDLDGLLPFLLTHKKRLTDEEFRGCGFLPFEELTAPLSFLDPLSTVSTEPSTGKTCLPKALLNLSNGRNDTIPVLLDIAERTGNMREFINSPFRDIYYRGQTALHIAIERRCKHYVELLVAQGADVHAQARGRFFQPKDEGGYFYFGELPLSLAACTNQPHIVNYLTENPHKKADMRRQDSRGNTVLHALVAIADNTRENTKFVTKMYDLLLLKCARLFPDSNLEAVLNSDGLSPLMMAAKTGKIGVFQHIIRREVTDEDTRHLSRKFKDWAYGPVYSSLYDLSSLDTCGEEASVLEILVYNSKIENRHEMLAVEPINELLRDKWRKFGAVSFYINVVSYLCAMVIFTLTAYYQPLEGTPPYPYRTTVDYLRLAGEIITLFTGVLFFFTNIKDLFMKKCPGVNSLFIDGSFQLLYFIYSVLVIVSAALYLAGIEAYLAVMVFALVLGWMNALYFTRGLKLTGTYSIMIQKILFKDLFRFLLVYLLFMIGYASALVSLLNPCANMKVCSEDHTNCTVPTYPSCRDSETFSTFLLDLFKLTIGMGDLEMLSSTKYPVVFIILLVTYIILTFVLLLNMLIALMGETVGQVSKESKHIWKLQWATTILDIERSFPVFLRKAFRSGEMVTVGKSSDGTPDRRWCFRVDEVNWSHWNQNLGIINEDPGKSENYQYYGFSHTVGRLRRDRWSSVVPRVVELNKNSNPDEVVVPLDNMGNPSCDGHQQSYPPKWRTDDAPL

Question: With `Cc1c(C(=O)Nc2cccc(C(F)(F)F)c2)cc(-c2ccccc2)n1CCCN1CCOCC1` [HC, HC-067047] as the compound, how does the “whole-cell patch clamp, block of GSK1016790A-evoked currents in MDCK cells” value read?
Answer: the addition of HC significantly decreases the transient enhancement of dIm induced by GSK alone

Source: PMC10705919 (International Journal of Molecular Sciences, 2023)
